Laboratory results from patent US20250050053A1, “METHOD OF TREATMENT AND SELECTION OF PATIENTS BENEFITING FROM AGOMELATINE BASED ON EEG MEASUREMENTS” (Alto Neuroscience, Inc., priority 2023, published 2025).

System: patients with major depressive disorder
Assay: Open-label trials of adjunctive agomelatine 25 mg at bedtime; baseline EEG machine learning models predicting change in MADRS
Assay type: in vivo, human
Method: The inventors conducted two parallel open-label clinical trials of agomelatine at 25 mg once at bedtime in patients with major depressive disorder (NCT05118750 and NCT05157945, whose data was pooled in these analyses). […] Patients were evaluated over the course of eight weeks of treatment.
EEG data were collected at rest (encompassing both eyes open and eyes closed conditions) prior to treatment using a 19-channel EEG system covering the conventional 10-20 electrode locations. A total of 107 patients with moderate to severe depression (MADRS 20 and PHQ-9≥10) had EEG data (107 with eyes open (REO) EEG, 105 with eyes closed (REC) EEG). Quality control assessments were conducted, yielding 105 REO patient datasets and 103 REC patient datasets. […] The training dataset consisted of 60 REO patient datasets and 60 REC patient datasets. The holdout set consisted of […] and […].
In order to compile these individual signals into a single EEG composite entropy model for prediction of treatment outcome, the inventors conducted 10-fold cross-validated machine learning using elastic net regularization against an outcome of high versus low response to agomelatine. Cross-validation divides the training dataset iteratively into 9/10 for training the machine learning model and 1/10 for evaluating the predictive utility of the model (i.e., participants left out of the training itself, though part of the aforementioned training dataset). The training sample is then divided in this way until each participant has been left out of the training subset.
The Cohen's d effect sizes at these weeks are all >0.4, indicating a substantial effect size for the prediction, especially considering that the meta-analytically calculated all-comer (i.e., unselected depression patients) effect size for the difference in treatment response to agomelatine (as monotherapy) versus placebo is d=0.26 (Cipriani et al., Lancet., 2018, 391(10128):1357-1366, PMID: 29477251).
In addition to sample entropy, the inventors developed similar machine learning models to test the predictive utility of a range of other EEG complexity measures, as well as other common EEG indices. […] Thus, certain complexity measures appear to carry consistent and strong prediction of agomelatine outcome.

COc1ccc2cccc(CCNC(C)=O)c2c1 [agomelatine, N-[2-(7-methoxynaphthalen-1-yl)ethyl]acetamide]
Cohen's d, prediction of agomelatine outcome (REC, Modified Multiscale Entropy, lower gamma, Week 2): 0.01 | Cohen's d, prediction of agomelatine outcome (REC, Modified Multiscale Entropy, lower gamma, Week 4): 0.21 | Cohen's d, prediction of agomelatine outcome (REC, Modified Multiscale Entropy, upper alpha, Week 1): 0.19 | Cohen's d, prediction of agomelatine outcome (REC, Modified Multiscale Entropy, upper alpha, Week 2): 0.25 | Cohen's d, prediction of agomelatine outcome (REC, Modified Multiscale Entropy, upper alpha, Week 4): 0.39 | Cohen's d, prediction of agomelatine outcome (REC, Multiscale Entropy, upper alpha, Week 1): 0.05 | Cohen's d, prediction of agomelatine outcome (REO, Approximate Entropy, lower gamma, Week 1): −0.15 | Cohen's d, prediction of agomelatine outcome (REO, Approximate Entropy, lower gamma, Week 2): −0.05 | Cohen's d, prediction of agomelatine outcome (REO, Approximate Entropy, lower gamma, Week 4): 0.09 | Cohen's d, prediction of agomelatine outcome (REO, Detrended Fluctuation Analysis, upper gamma, Week 1): 0.37 | Cohen's d, prediction of agomelatine outcome (REO, Detrended Fluctuation Analysis, upper gamma, Week 2): 0.33 | Cohen's d, prediction of agomelatine outcome (REO, Detrended Fluctuation Analysis, upper gamma, Week 4): 0.32 | Cohen's d, prediction of agomelatine outcome (REO, Higuchi Fractal Dimension, delta, Week 1): −0.15 | Cohen's d, prediction of agomelatine outcome (REO, Higuchi Fractal Dimension, delta, Week 2): −0.05 | Cohen's d, prediction of agomelatine outcome (REO, Higuchi Fractal Dimension, delta, Week 4): 0.12 | Cohen's d, prediction of agomelatine outcome (REO, Higuchi Fractal Dimension, lower beta, Week 1): 0.03 | Cohen's d, prediction of agomelatine outcome (REO, Higuchi Fractal Dimension, lower beta, Week 2): 0.03 | Cohen's d, prediction of agomelatine outcome (REO, Higuchi Fractal Dimension, lower beta, Week 4): 0.05 | Cohen's d, prediction of agomelatine outcome (REO, Higuchi Fractal Dimension, upper gamma, Week 1): 0.04 | Cohen's d, prediction of agomelatine outcome (REO, Higuchi Fractal Dimension, upper gamma, Week 2): 0.06 | Cohen's d, prediction of agomelatine outcome (REO, Higuchi Fractal Dimension, upper gamma, Week 4): 0.11 | Cohen's d, prediction of agomelatine outcome (REO, Katz Fractal Dimension, delta, Week 1): 0.04 | Cohen's d, prediction of agomelatine outcome (REO, Katz Fractal Dimension, delta, Week 2): 0.07 | Cohen's d, prediction of agomelatine outcome (REO, Katz Fractal Dimension, delta, Week 4): 0.13 | Cohen's d, prediction of agomelatine outcome (REO, Katz Fractal Dimension, lower beta, Week 1): 0.28 | Cohen's d, prediction of agomelatine outcome (REO, Katz Fractal Dimension, lower beta, Week 2): 0.18 | Cohen's d, prediction of agomelatine outcome (REO, Katz Fractal Dimension, lower beta, Week 4): 0.06 | Cohen's d, prediction of agomelatine outcome (REO, Katz Fractal Dimension, upper beta, Week 1): 0.24 | Cohen's d, prediction of agomelatine outcome (REO, Katz Fractal Dimension, upper beta, Week 2): 0.24 | Cohen's d, prediction of agomelatine outcome (REO, Katz Fractal Dimension, upper beta, Week 4): 0.29 | Cohen's d, prediction of agomelatine outcome (REO, Largest Lyapunov Exponent, upper alpha, Week 1): 0.03 | Cohen's d, prediction of agomelatine outcome (REO, Largest Lyapunov Exponent, upper alpha, Week 2): 0.08 | Cohen's d, prediction of agomelatine outcome (REO, Largest Lyapunov Exponent, upper alpha, Week 4): 0.17 | Cohen's d, prediction of agomelatine outcome (REO, Largest Lyapunov Exponent, upper gamma, Week 1): −0.24 | Cohen's d, prediction of agomelatine outcome (REO, Largest Lyapunov Exponent, upper gamma, Week 2): −0.11 | Cohen's d, prediction of agomelatine outcome (REO, Largest Lyapunov Exponent, upper gamma, Week 4): 0.08 | Cohen's d, prediction of agomelatine outcome (REO, Lempel-Ziv Complexity, lower gamma, Week 1): −0.24 | Cohen's d, prediction of agomelatine outcome (REO, Lempel-Ziv Complexity, lower gamma, Week 2): −0.13 | Cohen's d, prediction of agomelatine outcome (REO, Lempel-Ziv Complexity, lower gamma, Week 4): 0.02 | Cohen's d, prediction of agomelatine outcome (REO, Lempel-Ziv Complexity, theta, Week 1): 0.13 | Cohen's d, prediction of agomelatine outcome (REO, Lempel-Ziv Complexity, theta, Week 2): 0.14 | Cohen's d, prediction of agomelatine outcome (REO, Lempel-Ziv Complexity, theta, Week 4): 0.17 | Cohen's d, prediction of agomelatine outcome (REO, Lempel-Ziv Complexity, upper beta, Week 1): 0.19 | Cohen's d, prediction of agomelatine outcome (REO, Lempel-Ziv Complexity, upper beta, Week 2): 0.21 | Cohen's d, prediction of agomelatine outcome (REO, Lempel-Ziv Complexity, upper beta, Week 4): 0.30 | Cohen's d, prediction of agomelatine outcome (REO, Modified Multiscale Entropy, upper beta, Week 1): 0.08 | Cohen's d, prediction of agomelatine outcome (REO, Modified Multiscale Entropy, upper beta, Week 2): 0.15 | Cohen's d, prediction of agomelatine outcome (REO, Modified Multiscale Entropy, upper beta, Week 4): 0.31 | Cohen's d, prediction of agomelatine outcome (REO, Multiscale Entropy, lower gamma, Week 1): −0.41 | Cohen's d, prediction of agomelatine outcome (REO, Multiscale Entropy, lower gamma, Week 2): −0.21 | Cohen's d, prediction of agomelatine outcome (REO, Multiscale Entropy, lower gamma, Week 4): 0.05 | MADRS change, high vs low Pz low-gamma sample entropy (z≥0.27, full study sample, all weeks): strong and statistically significant prediction of treatment outcome across all weeks
